From the supplement of paper PMC10307832

Assays:
Assay in all cases: relative viability (nuclei count vs DMSO), 5 days (fraction); higher = more cells survive
Cediranib + Phenformin = compound: COc1cc2c(Oc3ccc4[nH]c(C)cc4c3F)ncnc2cc1OCCCN1CCCC1 [Cediranib] + N=C(N)NC(=N)NCCc1ccccc1 [Phenformin] (partner 250 µM)
In short: (§1)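 Values are medians from duplicate plates. Each reflects relative viability, defined as the nuclei count of treated wells over that of vehicle wells. Lung cancer cell lines in 1536-well plates were pin-tool dosed one day after seeding with one drug alone or with a fixed anchor-drug dose plus five library-drug doses (not always all listed) in √10 steps, then fixed, stained and imaged at 4× after 5 days.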

Decitabine + Phenformin = compound: Nc1ncn([C@H]2C[C@H](O)[C@@H](CO)O2)c(=O)n1 [Decitabine] + N=C(N)NC(=N)NCCc1ccccc1 [Phenformin] (partner 250 µM)
In short: as §1

Cediranib + Navitoclax = compound: COc1cc2c(Oc3ccc4[nH]c(C)cc4c3F)ncnc2cc1OCCCN1CCCC1 [Cediranib] + CC1(C)CCC(c2ccc(Cl)cc2)=C(CN2CCN(c3ccc(C(=O)NS(=O)(=O)c4ccc(N[C@H](CCN5CCOCC5)CSc5ccccc5)c(S(=O)(=O)C(F)(F)F)c4)cc3)CC2)C1 [Navitoclax] (partner 0.5 µM)
In short: as §1

[1] = compound: O=C(C[C@H]1NCCC[C@@H]1O)Cn1cnc2cc(Br)c(Cl)cc2c1=O (racemic) [Halofuginone] + Nc1nc2[nH]cc(CCc3ccc(C(=O)N[C@@H](CCC(=O)O)C(=O)O)cc3)c2c(=O)[nH]1 [Pemetrexed] (partner 0.2 µM)
In short: as §1

Row | Cell Line | relative viability (Cediranib + Phenformin; first compound 0.04 µM) | relative viability (Cediranib + Phenformin; first compound 0.4 µM) | relative viability (Cediranib + Phenformin; first compound 1.265 µM) | relative viability (Cediranib + Phenformin; first compound 4 µM) | relative viability (Decitabine + Phenformin; first compound 0.04 µM) | relative viability (Decitabine + Phenformin; first compound 0.1265 µM) | relative viability (Decitabine + Phenformin; first compound 0.4 µM) | relative viability (Decitabine + Phenformin; first compound 4 µM) | relative viability (Cediranib + Navitoclax; first compound 0.04 µM) | relative viability (Cediranib + Navitoclax; first compound 0.1265 µM) | relative viability (Cediranib + Navitoclax; first compound 0.4 µM) | relative viability (Cediranib + Navitoclax; first compound 1.265 µM) | relative viability (Cediranib + Navitoclax; first compound 4 µM) | relative viability ([1]; first compound 0.001 µM) | relative viability ([1]; first compound 0.003162 µM) | relative viability ([1]; first compound 0.01 µM) | relative viability ([1]; first compound 0.03162 µM) | relative viability ([1]; first compound 0.1 µM) | relative viability (Cediranib + Phenformin; first compound 0.1265 µM) | relative viability (Decitabine + Phenformin; first compound 1.265 µM)
1 | NCI-H3122 | 0.374 | 0.364 | 0.36 | 0.363 | 0.371 | 0.364 | 0.342 | 0.315 | 1.05 | 1.03 | 1.05 | 0.998 | 1.02 | 0.207 | 0.191 | 0.205 | 0.189 | 0.198 |  | 
2 | PC-3 [JPC-3] | 0.462 | 0.489 | 0.472 | 0.468 | 0.372 | 0.452 | 0.393 | 0.379 | 0.715 | 0.705 | 0.735 | 0.849 | 0.801 | 1.1 | 1.12 | 0.983 | 1.21 | 0.854 | 0.498 | 0.386
3 | PC-14 | 0.593 | 0.508 | 0.517 | 0.567 | 0.114 | 0.339 | 0.128 | 0.163 | 0.989 | 1.03 | 1.02 | 0.905 | 1.24 | 0.153 | 0.148 | 0.143 | 0.163 | 0.164 | 0.756 | 0.126
4 | RERF-LC-KJ | 0.42 | 0.386 | 0.476 | 0.426 | 0.459 | 0.386 |  | 0.333 | 0.974 | 1.29 | 0.756 | 0.926 | 0.734 | 0.452 | 0.45 | 0.434 | 0.454 | 0.461 | 0.442 | 0.402
5 | SK-LU-1 | 0.541 | 0.497 | 0.456 | 0.439 | 0.42 | 0.448 | 0.278 | 0.297 | 1.1 | 0.999 | 0.859 | 0.654 | 1.04 | 1.03 | 0.981 | 0.912 | 0.921 | 0.409 | 0.708 | 0.344
6 | SK-MES-1 | 0.663 | 0.618 | 0.626 | 0.639 | 0.535 | 0.553 | 0.346 | 0.291 | 1.23 | 1.36 | 1.13 | 1.21 | 1.2 | 1.07 | 0.983 | 0.877 | 0.74 | 0.253 | 0.748 | 0.271
7 | SW 1573 | 0.35 | 0.329 | 0.394 | 0.416 | 0.32 | 0.327 | 0.323 | 0.168 | 0.925 | 1.06 | 0.872 | 1.01 | 1.05 | 0.914 |  | 0.775 | 0.574 | 0.208 | 0.336 | 0.287
